{"source": "patent US20100267561A1", "about": "“HERBICIDAL PYRIDAZINONE DERIVATIVES” (priority 2007, published 2010)", "experiment_in_all_cases": "Test E pre-/postemergence plant response", "assay_type_in_all_cases": "in vivo", "key": {"[1]": {"test_system": "Italian ryegrass (Lolium multiflorum)", "settings": "scale 0 to 100", "method_in_brief": "(§1)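 Seeds were planted and treated preemergence with compound formulated in a non-phytotoxic solvent mixture containing surfactant; postemergence sprays in the same formulation went onto plants 2 to 18 cm tall (1- to 4-leaf stage). After 14 to 21 days in a greenhouse, injury versus untreated controls was rated visually, 0 (no effect) to 100 (complete control).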"}, "[2]": {"test_system": "annual bluegrass (Poa annua)", "settings": "scale 0 to 100", "method_in_brief": "as §1"}, "[3]": {"test_system": "barnyardgrass (Echinochloa crus-galli)", "settings": "scale 0 to 100", "method_in_brief": "as §1"}, "[4]": {"test_system": "bermudagrass (Cynodon dactylon)", "settings": "scale 0 to 100", "method_in_brief": "as §1"}, "[5]": {"test_system": "black mustard (Brassica nigra)", "settings": "scale 0 to 100", "method_in_brief": "as §1"}, "[6]": {"test_system": "common chickweed (Stellaria media)", "settings": "Postemergence, scale 0 to 100", "method_in_brief": "as §1"}, "[7]": {"test_system": "goosegrass (Eleusine indica)", "settings": "scale 0 to 100", "method_in_brief": "as §1"}, "[8]": {"test_system": "guineagrass (Panicum maximum)", "settings": "scale 0 to 100", "method_in_brief": "as §1"}, "[9]": {"test_system": "itchgrass (Rottboellia cochinchinensis)", "settings": "scale 0 to 100", "method_in_brief": "as §1"}, "[10]": {"test_system": "naked crabgrass (Digitaria nuda)", "settings": "scale 0 to 100", "method_in_brief": "as §1"}, "[11]": {"test_system": "pitted morningglory (Ipomoea lacunosa)", "settings": "scale 0 to 100", "method_in_brief": "as §1"}}}
{"smiles": "Cc1cc(-c2ccc(Cl)cc2)nn1-c1c(OS(C)(=O)=O)cnn(C)c1=O", "note": "[Compound 36]", "values": [{"measurement": "Plant response rating, Ryegrass, Italian", "setting": "[1]; 16 g ai/ha, Preemergence", "result": 100}, {"measurement": "Plant response rating, Ryegrass, Italian", "setting": "[1]; 31 g ai/ha, Preemergence", "result": 100}, {"measurement": "Plant response rating, Ryegrass, Italian", "setting": "[1]; 62 g ai/ha, Preemergence", "result": 100}, {"measurement": "Plant response rating, Ryegrass, Italian", "setting": "[1]; Postemergence, 8 g ai/ha", "result": 0}, {"measurement": "Plant response rating, Ryegrass, Italian", "setting": "[1]; Postemergence, 16 g ai/ha", "result": 35}, {"measurement": "Plant response rating, Ryegrass, Italian", "setting": "[1]; Postemergence, 31 g ai/ha", "result": 60}, {"measurement": "Plant response rating, Ryegrass, Italian", "setting": "[1]; Postemergence, 62 g ai/ha", "result": 80}, {"measurement": "Plant response rating, Bluegrass", "setting": "[2]; 8 g ai/ha, Preemergence", "result": 0}, {"measurement": "Plant response rating, Bluegrass", "setting": "[2]; 16 g ai/ha, Preemergence", "result": 0}, {"measurement": "Plant response rating, Bluegrass", "setting": "[2]; 31 g ai/ha, Preemergence", "result": 0}, {"measurement": "Plant response rating, Bluegrass", "setting": "[2]; 62 g ai/ha, Preemergence", "result": 0}, {"measurement": "Plant response rating, Bluegrass", "setting": "[2]; Postemergence, 8 g ai/ha", "result": 0}, {"measurement": "Plant response rating, Bluegrass", "setting": "[2]; Postemergence, 16 g ai/ha", "result": 0}, {"measurement": "Plant response rating, Bluegrass", "setting": "[2]; Postemergence, 31 g ai/ha", "result": 0}, {"measurement": "Plant response rating, Bluegrass", "setting": "[2]; Postemergence, 62 g ai/ha", "result": 0}, {"measurement": "Plant response rating, Barnyardgrass", "setting": "[3]; 8 g ai/ha, Preemergence", "result": 80}, {"measurement": "Plant response rating, Barnyardgrass", "setting": "[3]; 16 g ai/ha, Preemergence", "result": 95}, {"measurement": "Plant response rating, Barnyardgrass", "setting": "[3]; 31 g ai/ha, Preemergence", "result": 95}, {"measurement": "Plant response rating, Barnyardgrass", "setting": "[3]; 62 g ai/ha, Preemergence", "result": 100}, {"measurement": "Plant response rating, Barnyardgrass", "setting": "[3]; Postemergence, 8 g ai/ha", "result": 50}, {"measurement": "Plant response rating, Barnyardgrass", "setting": "[3]; Postemergence, 16 g ai/ha", "result": 50}, {"measurement": "Plant response rating, Barnyardgrass", "setting": "[3]; Postemergence, 31 g ai/ha", "result": 95}, {"measurement": "Plant response rating, Barnyardgrass", "setting": "[3]; Postemergence, 62 g ai/ha", "result": 100}, {"measurement": "Plant response rating, Bermudagrass", "setting": "[4]; 8 g ai/ha, Preemergence", "result": 75}, {"measurement": "Plant response rating, Bermudagrass", "setting": "[4]; 16 g ai/ha, Preemergence", "result": 100}, {"measurement": "Plant response rating, Bermudagrass", "setting": "[4]; 31 g ai/ha, Preemergence", "result": 100}, {"measurement": "Plant response rating, Bermudagrass", "setting": "[4]; 62 g ai/ha, Preemergence", "result": 100}, {"measurement": "Plant response rating, Bermudagrass", "setting": "[4]; Postemergence, 8 g ai/ha", "result": 40}, {"measurement": "Plant response rating, Bermudagrass", "setting": "[4]; Postemergence, 16 g ai/ha", "result": 40}, {"measurement": "Plant response rating, Bermudagrass", "setting": "[4]; Postemergence, 31 g ai/ha", "result": 70}, {"measurement": "Plant response rating, Bermudagrass", "setting": "[4]; Postemergence, 62 g ai/ha", "result": 90}, {"measurement": "Plant response rating, Mustard, Black", "setting": "[5]; 8 g ai/ha, Preemergence", "result": 0}, {"measurement": "Plant response rating, Mustard, Black", "setting": "[5]; 16 g ai/ha, Preemergence", "result": 0}, {"measurement": "Plant response rating, Mustard, Black", "setting": "[5]; 31 g ai/ha, Preemergence", "result": 0}, {"measurement": "Plant response rating, Mustard, Black", "setting": "[5]; 62 g ai/ha, Preemergence", "result": 0}, {"measurement": "Plant response rating, Mustard, Black", "setting": "[5]; Postemergence, 8 g ai/ha", "result": 0}, {"measurement": "Plant response rating, Mustard, Black", "setting": "[5]; Postemergence, 16 g ai/ha", "result": 0}, {"measurement": "Plant response rating, Mustard, Black", "setting": "[5]; Postemergence, 31 g ai/ha", "result": 0}, {"measurement": "Plant response rating, Mustard, Black", "setting": "[5]; Postemergence, 62 g ai/ha", "result": 0}, {"measurement": "Plant response rating, Chickweed", "setting": "[6]; 8 g ai/ha", "result": 0}, {"measurement": "Plant response rating, Chickweed", "setting": "[6]; 16 g ai/ha", "result": 0}, {"measurement": "Plant response rating, Goosegrass", "setting": "[7]; 8 g ai/ha, Preemergence", "result": 30}, {"measurement": "Plant response rating, Goosegrass", "setting": "[7]; 16 g ai/ha, Preemergence", "result": 98}, {"measurement": "Plant response rating, Goosegrass", "setting": "[7]; 31 g ai/ha, Preemergence", "result": 98}, {"measurement": "Plant response rating, Goosegrass", "setting": "[7]; 62 g ai/ha, Preemergence", "result": 100}, {"measurement": "Plant response rating, Goosegrass", "setting": "[7]; Postemergence, 8 g ai/ha", "result": 0}, {"measurement": "Plant response rating, Goosegrass", "setting": "[7]; Postemergence, 16 g ai/ha", "result": 35}, {"measurement": "Plant response rating, Goosegrass", "setting": "[7]; Postemergence, 31 g ai/ha", "result": 40}, {"measurement": "Plant response rating, Goosegrass", "setting": "[7]; Postemergence, 62 g ai/ha", "result": 75}, {"measurement": "Plant response rating, Guineagrass", "setting": "[8]; 16 g ai/ha, Preemergence", "result": 100}, {"measurement": "Plant response rating, Guineagrass", "setting": "[8]; 31 g ai/ha, Preemergence", "result": 100}, {"measurement": "Plant response rating, Guineagrass", "setting": "[8]; 62 g ai/ha, Preemergence", "result": 100}, {"measurement": "Plant response rating, Guineagrass", "setting": "[8]; Postemergence, 8 g ai/ha", "result": 35}, {"measurement": "Plant response rating, Guineagrass", "setting": "[8]; Postemergence, 16 g ai/ha", "result": 75}, {"measurement": "Plant response rating, Guineagrass", "setting": "[8]; Postemergence, 31 g ai/ha", "result": 90}, {"measurement": "Plant response rating, Guineagrass", "setting": "[8]; Postemergence, 62 g ai/ha", "result": 90}, {"measurement": "Plant response rating, Itchgrass", "setting": "[9]; 16 g ai/ha, Preemergence", "result": 65}, {"measurement": "Plant response rating, Itchgrass", "setting": "[9]; 31 g ai/ha, Preemergence", "result": 75}, {"measurement": "Plant response rating, Itchgrass", "setting": "[9]; 62 g ai/ha, Preemergence", "result": 90}, {"measurement": "Plant response rating, Itchgrass", "setting": "[9]; Postemergence, 8 g ai/ha", "result": 0}, {"measurement": "Plant response rating, Itchgrass", "setting": "[9]; Postemergence, 16 g ai/ha", "result": 40}, {"measurement": "Plant response rating, Itchgrass", "setting": "[9]; Postemergence, 31 g ai/ha", "result": 50}, {"measurement": "Plant response rating, Itchgrass", "setting": "[9]; Postemergence, 62 g ai/ha", "result": 60}, {"measurement": "Plant response rating, Crabgrass, Naked", "setting": "[10]; 8 g ai/ha, Preemergence", "result": 90}, {"measurement": "Plant response rating, Crabgrass, Naked", "setting": "[10]; 16 g ai/ha, Preemergence", "result": 100}, {"measurement": "Plant response rating, Crabgrass, Naked", "setting": "[10]; 31 g ai/ha, Preemergence", "result": 100}, {"measurement": "Plant response rating, Crabgrass, Naked", "setting": "[10]; 62 g ai/ha, Preemergence", "result": 100}, {"measurement": "Plant response rating, Crabgrass, Naked", "setting": "[10]; Postemergence, 8 g ai/ha", "result": 40}, {"measurement": "Plant response rating, Crabgrass, Naked", "setting": "[10]; Postemergence, 16 g ai/ha", "result": 60}, {"measurement": "Plant response rating, Crabgrass, Naked", "setting": "[10]; Postemergence, 31 g ai/ha", "result": 90}, {"measurement": "Plant response rating, Crabgrass, Naked", "setting": "[10]; Postemergence, 62 g ai/ha", "result": 98}, {"measurement": "Plant response rating, Morningglory", "setting": "[11]; 16 g ai/ha, Preemergence", "result": 0}, {"measurement": "Plant response rating, Morningglory", "setting": "[11]; 31 g ai/ha, Preemergence", "result": 0}, {"measurement": "Plant response rating, Morningglory", "setting": "[11]; 62 g ai/ha, Preemergence", "result": 0}, {"measurement": "Plant response rating, Morningglory", "setting": "[11]; Postemergence, 8 g ai/ha", "result": 0}, {"measurement": "Plant response rating, Morningglory", "setting": "[11]; Postemergence, 16 g ai/ha", "result": 0}, {"measurement": "Plant response rating, Morningglory", "setting": "[11]; Postemergence, 31 g ai/ha", "result": 0}, {"measurement": "Plant response rating, Morningglory", "setting": "[11]; Postemergence, 62 g ai/ha", "result": 0}]}
